# Columns and labels:
# Format in all cases: physicochemical
# [1] = Distribution ratio of cesium extracted in organic solutions of crown ethers (Table 1); conditions: crown ether 0.1 mole/l in Fluoroheptanol n3; Sr and Cs 1 g/l, nitric acid about 3.0 mol/l
# Description: Study was carried out for determining the distribution ratios of radionuclides, for example, strontium or cesium to be extracted by the extractants according to the invention containing various crown ethers as a complexing agent: bis(tert-butylbenzo)-18-crown-6 (subsequently referred to as DTBDB18C6), di-isooctylbenzo-18-crown-6 (subsequently referred to as DIODB18C6), bis(tert-butylcyclohexane-18-crown-6 (subsequently referred to as DTBDCH18C6), di-isooxyldicyclohexane-18-crown-6 (subsequently referred to as DIODCH18C6), bicyclohexane-18-crown-6 (subsequently referred to as DCH18C6) or dibenzo-21-crown-7 (subsequently referred to as DB21C7), in an organic solvent according to the invention: polyfluorinated telomeric alcohol 1,1,7-trihydrododecafluoroheptanol-1 (subsequently referred to as fluoroheptanol n3).
# For comparison, the distribution ratios of strontium and cesium were determined using extractants containing similar crown ethers in another organic solvent (decane).
# Taken for the tests were experimental aqueous nitrate solutions containing strontium and cesium in a concentration of 1 g/l with a content of nitric acid of about 3.0 mol/l.
# [2] = Extraction of cations of different metals (Table 8); conditions: for Distribution ratios, Pb: initial 0.05 g/l; for Distribution ratios, Mn: initial 0.4 g/l; for Distribution ratios, Ru: initial 0.75 g/l; for Distribution ratios, Ba / Distribution ratios, Cr / Distribution ratios, Cs / Distribution ratios, Sr / Distribution ratios, Zr: initial 1.0 g/l; for Distribution ratios, Ba / Distribution ratios, Al: crown ether 0.05 mol/l in Fluoroheptanol n3 80% / synthanol 20%, nitric acid about 190 g/l; for Distribution ratios, Ca: initial 2.0 g/l; for Distribution ratios, Ni: initial 4.0 g/l; for Distribution ratios, Al: initial 6.0 g/l; for Distribution ratios, Fe / Distribution ratios, Na: initial 10.0 g/l; for Distribution ratios, Rare-earth: initial 25.0 g/l
# Excerpt: A process of extraction of cations of different metals from aqueous nitrate solutions was studied by processing them using the extractants according to the invention containing DCH18C6 or DB21C7 in an organic solvent comprising: Fluoroheptanol n3—80% by volume and synthanol—20% by volume at a concentration of crown ethers of 0.05 mol/l and a content of nitric acid about of 190 g/l. For comparison, the data were used given in a patent specification (U.S. Pat. No. 4,749,518, A) describing similar tests of extractants containing Crown XVI or Crown XVII with a cation exchanger—dinanylnaphthalene sulfonic acid in a matrix solution containing tributyl phosphate and kerosene.
# The solutions were contacted with the extractants according to the invention in temperature-controlled ([…]) separating funnels for 5 minutes at a ratio of organic and aqueous phases of 1:1. After settling within 60 minutes, the phases were separated, and the aqueous phase was analyzed to determine the concentration of the elements.
# [3] = Solubility of crown ethers in water and nitric acid from extractants with different organic solvents
# Description: The study of solubility of extractants according to the invention and the extractants containing similar crown ethers in other solvents in aqueous and nitrate solutions was carried out.
# Taken for the tests were crown ethers containing DCH18C6 or DB21C7 in a concentration of about 0.1 mole/l in different organic solvents. The extractants were mixed with aqueous or nitrate solutions with a content of nitric acid 3 mole/l in a closed thermostatically controlled chamber for 3 hours. Then the obtained water-organic systems were separated. The aqueous part after settling down and filtering was analyzed for a content of crown ethers using photometric measurements.
# [4] = Influence of nitric acid concentration on extraction of sodium; conditions: crown ether about 0.1 mol/l in Fluoroheptanol n3
# Description: Selected for study were extractants containing crown ethers: DB18C6, DTBDB18C6, DCH18C6 or DB21C7 in a concentration of about 0.1 mol/l in Fluoroheptanol n3. Used as experimental solutions were aqueous solutions of sodium nitrate whose concentration was determined using radiometric techniques on previously added aliquot of a sodium-22 isotope.
# [5] = Radiation resistance of the extractants (gamma irradiation)
# Excerpt: The radiation resistance of the extractants according to the invention used for extraction radionuclides of strontium or cesium was studied. For this purpose, reaction mixtures consisting of biphase water-organic systems containing extractants based on crown ethers DCH18C6 or DB21C7 in Fluoroheptanol n3 and aqueous nitrate waste solutions, and, for comparison, reaction mixtures containing extractants based on crown ethers Crown XVI or Crown XVII with a cation exchanger—dinanylnaphthalene of sulfonic acids in a matrix solution comprising tributyl phosphate and kerosene were irradiated with gamma-rays […] in a temperature-controlled cell of stainless steel with continuous agitation by bubbling. The maximum integrated radiation dose was equal to 285.3 kGr. The extractant samples were tested and the extraction characteristics were measured before and after the irradiation to determine a decrease of the distribution ratio DMe due to the radiological destruction of extractant components.
# [6] = Interaction of extractants with sodium (organic/aqueous phase concentration)
# Description: The characteristics of the extractants according to the invention in the process of extraction of sodium from acidic aqueous solutions of high-level waste were determined. For this purpose, the concentration of sodium in the organic and aqueous phases containing extractants based on DTBDB18C6 or DCH18C6 or DB21C7 in a concentration about of 0.05 mol/l in fluoroheptanol n3 were analyzed.
# [7] = Extraction of strontium in a dynamic countercurrent mode (7.1)
# Excerpt: A starting aqueous solution whose composition and concentration of the components are given in Table 3 for a solution No.1 was contacted with the extractant according to the invention containing 0.05 mole/l of DCH18C6 in a solvent containing 20% by volume of synthanol and 80% by volume of Fluoroheptanol n3 in a continuous countercurrent process on a facility with extractors such as “mixer-settler” devices with impulse agitation and phase transportation. The extraction included eight steps of extraction, two washing steps, eight re-extraction steps and two steps of regeneration of the reused extractant.
# When running the facility, radiometric monitoring devices were used to control the concentration of strontium in the refined products, re-extracts and reclaims, as well as the concentration of the crown ethers in the extracted products.
# [8] = solvent 2,2-dihydrotrifluoroethyl pentafluoroethyl ether, H2O
# [9] = solvent 2,2-dihydrotrifluoroethyl pentafluoroethyl ether, HNO3 3 mole/l
# [10] = solvent Fluoroheptanol n3, HNO3 3 mole/l
# [11] = solvent Tetrachloroethane, HNO3 3 mole/l, crown ether about 0.1 mole/l, 3 hours
# [12] = solvent Trichlorethylene, HNO3 3 mole/l
# [13] = solvent Trichlorobenzene, HNO3 3 mole/l
# [14] = sodium in the aqueous phase 0.01 mol/l, crown ether about 0.05 mol/l in fluoroheptanol n3
# [15] = sodium in the aqueous phase 0.1 mol/l, crown ether about 0.05 mol/l
# [16] = sodium in the aqueous phase 0.2 mol/l, crown ether about 0.05 mol/l
# [17] = sodium in the aqueous phase 0.4 mol/l, crown ether about 0.05 mol/l
structure (smiles),measurement,setting,value
"c1ccc2c(c1)OCCOCCOCCOc1ccccc1OCCOCCO2 [DB21C7, dibenzo-21-crown-7]",Distribution ratio Cesium,[1],10.7
same,"Distribution ratios, Pb",[2]; same extractant conditions,0.02
same,"Distribution ratios, Rb","[2]; initial 0.12 g/l, same extractant conditions",0.02
same,"Distribution ratios, Pd","[2]; initial 0.3 g/l, same extractant conditions",0.03
same,"Distribution ratios, Mn",[2]; same extractant conditions,0.04
same,"Distribution ratios, Ru",[2]; same extractant conditions,0.004
same,"Distribution ratios, Ba",[2],1.02
same,"Distribution ratios, Cr",[2]; same extractant conditions,0.02
same,"Distribution ratios, Cs",[2]; same extractant conditions,1.8
same,"Distribution ratios, Sr",[2]; same extractant conditions,0.02
same,"Distribution ratios, Zr",[2]; same extractant conditions,0.038
same,"Distribution ratios, Ca",[2]; same extractant conditions,0.02
same,"Distribution ratios, Ni",[2]; same extractant conditions,0.03
same,"Distribution ratios, Al",[2],0.02
same,"Distribution ratios, Fe",[2]; same extractant conditions,0.014
same,"Distribution ratios, Na",[2]; same extractant conditions,0.047
same,"Distribution ratios, Rare-earth",[2]; same extractant conditions,0.04
same,Concentration of crown ether in an aqueous phase,[3]; [8],0.071 mol/l × 10^−3
same,Concentration of crown ether in an aqueous phase,[3]; [9],0.112 mol/l × 10^−3
same,Concentration of crown ether in an aqueous phase,"[3]; solvent Fluoroheptanol n3, H2O",<0.025 mol/l × 10^−3
same,Concentration of crown ether in an aqueous phase,[3]; [10],0.068 mol/l × 10^−3
same,Concentration of crown ether in an aqueous phase,"[3]; solvent Tetrachloroethane, H2O",0.173 mol/l × 10^−3
same,Concentration of crown ether in an aqueous phase,[3]; [11],0.159 mol/l × 10^−3
same,Remarks,[3]; solvent Tetrachloropropane,Insoluble
same,Concentration of crown ether in an aqueous phase,"[3]; solvent Trichlorethylene, H2O",0.188 mol/l × 10^−3
same,Concentration of crown ether in an aqueous phase,[3]; [12],0.218 mol/l × 10^−3
same,Concentration of crown ether in an aqueous phase,"[3]; solvent Trichlorobenzene, H2O",0.168 mol/l × 10^−3
same,Concentration of crown ether in an aqueous phase,[3]; [13],0.173 mol/l × 10^−3
same,Distribution ratios of sodium,[4]; nitric acid 0 mol/l,0
same,Distribution ratios of sodium,[4]; nitric acid 0.1 mol/l,0
same,Distribution ratios of sodium,[4]; nitric acid 0.5 mol/l,0.005
same,Distribution ratios of sodium,[4]; nitric acid 1.0 mol/l,0.01
same,Distribution ratios of sodium,[4]; nitric acid 3.0 mol/l,0.1
same,Distribution ratios of sodium,[4]; nitric acid 5.0 mol/l,0.12
same,Distribution ratio before irradiation,[5]; Cs,2.83
same,Distribution ratio DMe after irradiation,"[5]; Cs, dose 100.0 kGr (10^7 rad)",2.83
same,"Distribution ratio after irradiation, % of original","[5]; Cs, dose 100.0 kGr (10^7 rad)",100.0%
same,Distribution ratio DMe after irradiation,"[5]; Cs, dose 285.3 kGr",2.65
same,"Distribution ratio after irradiation, % of original","[5]; Cs, dose 285.3 kGr",93.8%
same,Sodium concentration in the organic phase,[6]; [14],0 mol/L
same,Sodium concentration in the organic phase,[6]; [15],0.01 mol/L
same,Sodium concentration in the organic phase,[6]; [16],0.018 mol/L
same,Sodium concentration in the organic phase,[6]; [17],0.035 mol/L
"C1CCC2OCCOCCOC3CCCCC3OCCOCCOC2C1 (centres unmarked) [DCH18C6, bicyclohexane-18-crown-6]","Contents of strontium in the extracted products, in percent of the feedstock",[7]; Re-extract,99.55% of the feedstock
same,"Contents of strontium in the extracted products, in percent of the feedstock",[7]; Reclaim,<0.1% of the feedstock
same,"Contents of strontium in the extracted products, in percent of the feedstock","[7]; Refined product, 0.05 mol/l DCH18C6, Synthanol 20% / Fluoroheptanol n3 80%, solution No.1",0.35% of the feedstock
same,Average concentrating factor,[7]; dynamic mode 7.1,about 1.7 times
same,Efficiency of the extraction of strontium,[7]; dynamic mode 7.1,exceeds 99%
same,"Distribution ratios, Pb",[2]; same extractant conditions,4.2
same,"Distribution ratios, Mn",[2]; same extractant conditions,0.06
same,"Distribution ratios, Ru",[2]; same extractant conditions,0.16
same,"Distribution ratios, Ba",[2],2.03
same,"Distribution ratios, Cr",[2]; same extractant conditions,0.02
same,"Distribution ratios, Cs",[2]; same extractant conditions,0.02
same,"Distribution ratios, Sr",[2]; same extractant conditions,3.6
same,"Distribution ratios, Zr",[2]; same extractant conditions,0.018
same,"Distribution ratios, Ca",[2]; same extractant conditions,0.12
same,"Distribution ratios, Ni",[2]; same extractant conditions,0.023
same,"Distribution ratios, Al",[2],0.03
same,"Distribution ratios, Fe",[2]; same extractant conditions,0.017
same,"Distribution ratios, Na",[2]; same extractant conditions,0.01
same,"Distribution ratios, Rare-earth",[2]; same extractant conditions,0.04
same,Concentration of crown ether in an aqueous phase,[3]; [8],0.301 mol/l × 10^−3
same,Concentration of crown ether in an aqueous phase,[3]; [9],0.344 mol/l × 10^−3
same,Concentration of crown ether in an aqueous phase,"[3]; solvent Fluoroheptanol n3, H2O",<0.027 mol/l × 10^−3
same,Concentration of crown ether in an aqueous phase,[3]; [10],0.086 mol/l × 10^−3
same,Concentration of crown ether in an aqueous phase,"[3]; solvent Tetrachloroethane, H2O",0.258 mol/l × 10^−3
same,Concentration of crown ether in an aqueous phase,[3]; [11],0.139 mol/l × 10^−3
same,Concentration of crown ether in an aqueous phase,"[3]; solvent Tetrachloropropane, H2O",0.968 mol/l × 10^−3
same,Concentration of crown ether in an aqueous phase,"[3]; solvent Tetrachloropropane, HNO3 3 mole/l",1.72 mol/l × 10^−3
same,Concentration of crown ether in an aqueous phase,"[3]; solvent Trichlorethylene, H2O",0.65 mol/l × 10^−3
same,Concentration of crown ether in an aqueous phase,[3]; [12],0.94 mol/l × 10^−3
same,Concentration of crown ether in an aqueous phase,"[3]; solvent Trichlorobenzene, H2O",1.142 mol/l × 10^−3
same,Concentration of crown ether in an aqueous phase,[3]; [13],2.016 mol/l × 10^−3
same,Distribution ratios of sodium,[4]; nitric acid 0 mol/l,0.1
same,Distribution ratios of sodium,[4]; nitric acid 0.1 mol/l,0.12
same,Distribution ratios of sodium,[4]; nitric acid 0.5 mol/l,0.12
same,Distribution ratios of sodium,[4]; nitric acid 1.0 mol/l,0.05
same,Distribution ratios of sodium,[4]; nitric acid 3.0 mol/l,0.02
same,Distribution ratios of sodium,[4]; nitric acid 5.0 mol/l,0.01
same,Distribution ratio before irradiation,[5]; Sr,3.6
same,Distribution ratio DMe after irradiation,"[5]; Sr, dose 100.0 kGr (10^7 rad)",3.4
same,"Distribution ratio after irradiation, % of original","[5]; Sr, dose 100.0 kGr (10^7 rad)",94.4%
same,Distribution ratio DMe after irradiation,"[5]; Sr, dose 285.3 kGr",3.0
same,"Distribution ratio after irradiation, % of original","[5]; Sr, dose 285.3 kGr",83.3%
same,Sodium concentration in the organic phase,[6]; [14],0 mol/L
same,Sodium concentration in the organic phase,[6]; [15],0.003 mol/L
same,Sodium concentration in the organic phase,[6]; [16],0.005 mol/L
same,Sodium concentration in the organic phase,[6]; [17],0.009 mol/L
